# Measured values: ChEMBL document CHEMBL4813953, “Kinetics-Driven Drug Design Strategy for Next-Generation Acetylcholinesterase Inhibitors to Clinical Candidate” (J Med Chem, 2021)
# Activity calls are given as the source filed them. No cut-off for these calls is given here.
# Molecular target: T1, Acetylcholinesterase (Rattus norvegicus, UniProt P37136)
# T1 sequence (P37136 whole entry): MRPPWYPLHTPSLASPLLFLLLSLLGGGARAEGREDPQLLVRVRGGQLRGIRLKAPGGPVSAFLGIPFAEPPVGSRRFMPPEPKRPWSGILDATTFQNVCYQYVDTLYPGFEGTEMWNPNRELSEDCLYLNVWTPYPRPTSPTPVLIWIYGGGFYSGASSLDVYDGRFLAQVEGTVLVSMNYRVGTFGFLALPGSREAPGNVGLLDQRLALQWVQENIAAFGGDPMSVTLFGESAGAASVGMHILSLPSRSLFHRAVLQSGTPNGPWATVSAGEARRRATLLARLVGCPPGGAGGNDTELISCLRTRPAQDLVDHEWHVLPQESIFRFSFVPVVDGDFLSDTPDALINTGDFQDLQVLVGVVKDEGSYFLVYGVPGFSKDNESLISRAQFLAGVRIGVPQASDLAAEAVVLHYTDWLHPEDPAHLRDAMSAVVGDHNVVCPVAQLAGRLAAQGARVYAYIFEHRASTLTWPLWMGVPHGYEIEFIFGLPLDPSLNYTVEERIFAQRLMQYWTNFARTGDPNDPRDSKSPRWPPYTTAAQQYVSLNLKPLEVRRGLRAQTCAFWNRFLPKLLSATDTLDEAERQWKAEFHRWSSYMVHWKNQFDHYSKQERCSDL
# Test: Inhibition of rat cortex homogenate acetylcholinesterase using acetylthiocholine iodide as substrate incubated for 20 mins by Ellman's method
# Type: tissue-based
# Settings: not given
row,SMILES,IC50 [nM]
1,CCCOc1cc2c(cc1OC)CC(CC1(F)CCN(Cc3ccccc3F)CC1)C2=O (stereo not given),25.3
2,COc1cc2c(cc1OC)C(=O)C(CC1(F)CCN(Cc3ccccc3C#N)CC1)C2 (stereo not given),163
3,COc1ccc2c(c1)C(=O)C(CC1(F)CCN(Cc3ccc(F)cc3)CC1)C2 (stereo not given),260
4,COc1cc2c(cc1OC)C(=O)C(CC1(F)CCN(Cc3cccc(C)c3)CC1)C2 (stereo not given),11.7
5,CCCCOc1cc2c(cc1OCCCC)C(=O)C(CC1(F)CCN(Cc3ccccc3F)CC1)C2 (stereo not given),181
6,COc1cc2c(cc1OC)C(=O)C(CC1(F)CCN(Cc3ccc(F)c(F)c3F)CC1)C2 (stereo not given),75.7
7,CCCOc1cc2c(cc1OCCC)C(=O)C(CC1(F)CCN(Cc3ccccc3F)CC1)C2 (stereo not given),66.7
8,COc1cc2c(cc1F)CC(CC1(F)CCN(Cc3ccccc3F)CC1)C2=O (stereo not given),22.5
9,CCCCOc1cc2c(cc1OCCCC)C(=O)C(CC1(F)CCN(Cc3cccc(F)c3)CC1)C2 (stereo not given),646
10,COc1cc2c(cc1OC)C(=O)C(CC1(F)CCN(Cc3cccc(C(F)(F)F)c3)CC1)C2 (stereo not given),348
11,COc1cc2c(cc1OC)C(=O)C(CC1(F)CCN(Cc3cccc(C#N)c3)CC1)C2 (stereo not given),67.3
12,CCCOc1cc2c(cc1OCCC)C(=O)C(CC1(F)CCN(Cc3cccc(F)c3)CC1)C2 (stereo not given),176
13,COc1cc2c(cc1OC)C(=O)C(CC1(F)CCN(Cc3cc(F)cc(F)c3F)CC1)C2 (stereo not given),306
14,COc1cc2c(cc1F)CC(CC1(F)CCN(Cc3ccc(F)cc3)CC1)C2=O (stereo not given),28.3
15,CCCOc1cc2c(cc1OC)CC(CC1(F)CCN(Cc3ccc(F)cc3)CC1)C2=O (stereo not given),18.3
16,COc1cc2c(cc1OCC1CC1)C(=O)C(CC1(F)CCN(Cc3cccc(F)c3)CC1)C2 (stereo not given),5.87

row,SMILES,IC50 [nM]
1,COc1cc2c(cc1F)C(=O)C(CC1(F)CCN(Cc3ccc(F)cc3)CC1)C2 (stereo not given),3.44
2,COc1cc2c(cc1OC)C(=O)C(CC1(F)CCN(Cc3ccc(F)cc3F)CC1)C2 (stereo not given),8.33
3,COc1cc2c(cc1OC)C(=O)C(CC1(F)CCN(CCc3ccc(F)cc3)CC1)C2 (stereo not given),404
4,COc1cc2c(cc1OC)C(=O)C(CC1(F)CCN(Cc3cc(F)cc(F)c3)CC1)C2 (stereo not given),226
5,COc1cc2c(cc1F)CC(CC1(F)CCN(Cc3cccc(F)c3)CC1)C2=O (stereo not given),44.9
6,COc1cc2c(cc1OC)C(=O)C(CC1(F)CCN(Cc3ccccc3C(F)(F)F)CC1)C2 (stereo not given),1640
7,COc1cc2c(cc1OC)C(=O)C(CC1(F)CCN(CCc3cccc(F)c3)CC1)C2 (stereo not given),59
8,COc1ccc2c(c1)CC(CC1(F)CCN(Cc3cccc(F)c3)CC1)C2=O (stereo not given),14.1
9,COc1cc2c(cc1F)C(=O)C(CC1(F)CCN(Cc3cccc(F)c3)CC1)C2 (stereo not given),3.71
10,COc1ccc2c(c1)C(=O)C(CC1(F)CCN(Cc3ccccc3F)CC1)C2 (stereo not given),60.5
11,COc1cc2c(cc1OC)C(=O)C(CC1(F)CCN(Cc3cccc(F)c3)CC1)C2 (stereo not given),3
12,COc1ccc2c(c1)CC(CC1(F)CCN(Cc3ccccc3F)CC1)C2=O (stereo not given),6.29
13,COc1cc2c(cc1OCC1CC1)C(=O)C(CC1(F)CCN(Cc3ccc(F)cc3)CC1)C2 (stereo not given),5.39
14,COc1cc2c(cc1OCC1CC1)C(=O)C(CC1(F)CCN(Cc3ccc(F)cc3F)CC1)C2 (stereo not given),4.59
15,COc1cc2c(cc1F)C(=O)C(CC1(F)CCN(Cc3ccccc3F)CC1)C2 (stereo not given),3.52

# Molecular target: T2, Acetylcholinesterase (Rattus norvegicus) (UniProt P37136)
# T2 sequence (whole entry): T1 sequence (P37136 whole entry)
# Test: Inhibition of rat cortex homogenate acetylcholinesterase at 40 uM using acetylthiocholine iodide as substrate incubated for 20 mins by Ellman's method relative to control
# Type: tissue-based
# Settings: not given
row,SMILES,inhibition [%]
1,COc1cc2c(cc1OC)C(=O)C(CC1(F)CCN(Cc3ccc(OC(F)(F)F)cc3)CC1)C2 (stereo not given),51.7
2,COc1cc2c(cc1OC)C(=O)C(CC1(F)CCN(CCc3ccccc3F)CC1)C2 (stereo not given),74.7
3,COc1cc2c(cc1OC)C(=O)C(CC1(F)CCN(Cc3ccc(C(F)(F)F)cc3)CC1)C2 (stereo not given),75.3
4,COc1cc2c(cc1OCC1CC1)C(=O)C(CC1(F)CCN(Cc3ccccc3F)CC1)C2 (stereo not given),8.4
5,COc1cc2c(cc1OC)C(=O)C(CC1(F)CCN(Cc3ccc(C(C)(C)C)cc3)CC1)C2 (stereo not given),69.1

# Molecular target: Acetylcholinesterase (Homo sapiens, UniProt P22303)
# Sequence (P22303 whole entry): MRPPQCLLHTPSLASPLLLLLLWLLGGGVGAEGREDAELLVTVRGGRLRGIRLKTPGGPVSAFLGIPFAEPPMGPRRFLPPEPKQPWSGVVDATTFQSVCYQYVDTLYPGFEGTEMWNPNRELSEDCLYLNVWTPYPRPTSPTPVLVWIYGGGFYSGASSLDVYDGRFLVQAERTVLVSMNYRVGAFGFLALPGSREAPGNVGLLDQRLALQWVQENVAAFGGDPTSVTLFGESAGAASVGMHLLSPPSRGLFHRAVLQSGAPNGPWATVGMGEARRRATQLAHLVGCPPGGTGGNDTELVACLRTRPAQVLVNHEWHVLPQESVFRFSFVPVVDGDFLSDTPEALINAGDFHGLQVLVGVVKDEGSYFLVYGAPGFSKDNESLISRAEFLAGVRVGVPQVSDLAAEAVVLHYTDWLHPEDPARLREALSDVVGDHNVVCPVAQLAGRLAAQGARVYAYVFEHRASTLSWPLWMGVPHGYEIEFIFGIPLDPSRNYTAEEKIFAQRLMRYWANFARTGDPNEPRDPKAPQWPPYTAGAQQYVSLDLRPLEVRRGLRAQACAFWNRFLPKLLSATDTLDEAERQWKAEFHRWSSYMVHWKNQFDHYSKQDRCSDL
# Test: Binding affinity to CM5 sensor chip immobilized recombinant human AChE assessed as dissociation constant at 298.15 K by surface plasmon resonance assay
# Settings: not given
row,SMILES,Kd [nM]
1,COc1cc2c(cc1OC)C(=O)C(CC1(F)CCN(Cc3ccc(F)cc3)CC1)C2 (stereo not given),2.78
2,COc1cc2c(cc1OC)C(=O)C(CC1(F)CCN(Cc3ccccc3)CC1)C2 (stereo not given),4.61
3,COc1cc2c(cc1OC)C(=O)C(CC1(F)CCN(Cc3ccc(F)cc3F)CC1)C2 (stereo not given),3.47
4,COc1cc2c(cc1OC)C(=O)C(CC1(F)CCN(Cc3cccc(F)c3)CC1)C2 (stereo not given),5.02
5,COc1cc2c(cc1OC)C(=O)C(CC1(F)CCN(Cc3cc(F)c(F)cc3F)CC1)C2 (stereo not given),5.23
6,C/C=C1\[C@H]2C=C(C)C[C@]1(N)c1ccc(=O)[nH]c1C2 [HUPERZINE A],17

# System: Mus musculus
# Test: Cognitive enhancing effect in mouse model of scopolamine-induced memory impairment assessed as reduction in escape latency time at 8 to 12 mg/kg, IG QD for 3 days by channel water maze test
# Type: functional, organism-based
# Settings: dose 8-12 mg/kg, time 3.0 day
row,SMILES,Activity
1,COc1cc2c(cc1OC)C(=O)C(CC1CCN(Cc3ccccc3)CC1)C2 (stereo not given),Active

# System: Mus musculus
# Test: Cognitive enhancing effect in mouse model of scopolamine-induced memory impairment assessed as reduction in number of errors at 8 to 12 mg/kg, IG QD for 3 days by channel water maze test
# Type: functional, organism-based
# Settings: dose 8-12 mg/kg, time 3.0 day
row,SMILES,Activity
1,COc1cc2c(cc1OC)C(=O)C(CC1CCN(Cc3ccccc3)CC1)C2 (stereo not given),Active

# System: not listed separately
# Test: Solubility of the compound
# Type: physicochemical
# Settings: not given
row,solubility,SMILES
1,Insoluble,COc1cc2c(cc1OC)C(=O)C(CC1(F)CCN(Cc3c(F)c(F)c(F)c(F)c3F)CC1)C2 (stereo not given)
